Among the data in patent US20240101570A1 (AMGEN INC., priority 2020, published 2024) are IC50 values, retold here.

In one test the test system is HCT116 MTAP null cells. Briefly: HCT116 MTAP null cell proliferation / viability (CellTiter-Glo, 6 days). The note with it: HCT116-MTAP null, 144 h, HCT116 MTAP null cells, 6 days, CellTiter-Glo; read-out: HCT-116 MTAP null IC50. The format is cell-based. In a few lines:
(§1)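 IC50 values derive from sigmoidal dose-response fits, some with Hill slope fixed at −1 and top constrained to 100%, others from 4-parameter logistic models. They reflect CellTiter-Glo viability after 6 days of compound exposure at up to 10 or 50 μM.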

The subject of the next test is HCT116 WT cells. Briefly: HCT116 WT cell proliferation / viability (CellTiter-Glo, 6 days). In kind it is cell-based. Conditions: Homo sapiens, HCT-116, 144 h, HCT116 WT cells, 6 days, CellTiter-Glo; read-out: HCT-116 WT IC50. A digest of the protocol: as §1
A general note: Cellular ATP, detected with luciferase, serves as a proxy for viable cell number.

Some results are limits rather than exact numbers.

The IC50 is the point on the concentration scale where inhibition reaches its midpoint.

As for `Cn1cc(N(Cc2ccc(C(F)(F)F)cn2)C(=O)c2cc3c4c(c(N)nc3cc2F)COC4)cn1` [Example 714, 4-amino-7-fluoro-N-(1-methyl-1H-pyrazol-4-yl)-N-((5-(trifluoromethyl)-2-pyridinyl)methyl)-1,3-dihydrofuro[3,4-c]quinoline-8-carboxamide], the results for the IC50 with HCT116 MTAP null cells and in the test with HCT116 WT cells were 8 nM and 124 nM, respectively.
Turning to `Cn1cc(N(Cc2ccc(C(F)(F)F)cn2)C(=O)c2cc3c4c(c(N)nc3cc2Cl)COC4)cn1` [Example 715, 4-amino-7-chloro-N-(1-methyl-1H-pyrazol-4-yl)-N-((5-(trifluoromethyl)-2-pyridinyl)methyl)-1,3-dihydrofuro[3,4-c]quinoline-8-carboxamide], the IC50 in the test with HCT116 MTAP null cells worked out at 6 nM; with HCT116 WT cells, 70 nM.
With `CC(C)N(Cc1ccc(Cl)cn1)C(=O)c1ccc2nc(N)c3c(c2c1)COC3` [Example 717, 4-amino-N-((5-chloro-2-pyridinyl)methyl)-N-(2-propanyl)-1,3-dihydrofuro[3,4-c]quinoline-8-carboxamide], the IC50 in the test with HCT116 MTAP null cells worked out at 609 nM; with HCT116 WT cells it was 7760 nM.
As for `CC(C)N(Cc1ccc(Cl)cn1)C(=O)c1cc2c3c(c(N)nc2cn1)COC3` [Example 718, 4-amino-N-((5-chloro-2-pyridinyl)methyl)-N-(2-propanyl)-1,3-dihydrofuro[3,4-c][1,7]naphthyridine-8-carboxamide], the IC50 in the test with HCT116 MTAP null cells worked out at 281 nM; in the test with HCT116 WT cells, 16400 nM.
In the same order, the values of `CCN(Cc1ncn(C)n1)C(=O)c1ccc2nc(N)c3c(c2c1)CO[C@@H]3C` [Example 720, (3R)-4-amino-N-ethyl-3-methyl-N-((1-methyl-1H-1,2,4-triazol-3-yl)methyl)-1,3-dihydrofuro[3,4-c]quinoline-8-carboxamide] are 14900 nM and more than 50000 nM.
For `Nc1nc2cnc(C(=O)N(Cc3ccc(C(F)(F)F)nn3)C3CCC3)cc2c2c1COC2` [Example 721, 4-amino-N-cyclobutyl-N-((6-(trifluoromethyl)-3-pyridazinyl)methyl)-1,3-dihydrofuro[3,4-c][1,7]naphthyridine-8-carboxamide], in that order: 209 nM and 9410 nM.
For `C[C@H]1OCc2c1c(N)nc1ccc(C(=O)N(Cc3ccc(C(F)(F)F)nn3)C3CCC3)cc21` [Example 722, (3R)-4-amino-N-cyclobutyl-3-methyl-N-((6-(trifluoromethyl)-3-pyridazinyl)methyl)-1,3-dihydrofuro[3,4-c]quinoline-8-carboxamide], in that order: 85 nM and 3350 nM.
`CCN(Cc1ccc(OC(F)F)nn1)C(=O)c1ccc2nc(N)c3c(c2c1)COC3` [Example 723, 4-amino-N-((6-(difluoromethoxy)-3-pyridazinyl)methyl)-N-ethyl-1,3-dihydrofuro[3,4-c]quinoline-8-carboxamide]: the values for the half-inhibitory concentration (IC50) in the test on HCT116 MTAP null cells and in the test with HCT116 WT cells were 157 nM and 6020 nM, respectively.
As to `CCN(Cc1ccc(OC(F)F)nn1)C(=O)c1cc2c3c(c(N)nc2cc1F)COC3` [Example 724, 4-amino-N-((6-(difluoromethoxy)-3-pyridazinyl)methyl)-N-ethyl-7-fluoro-1,3-dihydrofuro[3,4-c]quinoline-8-carboxamide], the IC50 with HCT116 MTAP null cells came out at 54 nM; with HCT116 WT cells it was 2440 nM.
Regarding `CCN(Cc1ccc(OC(F)F)nn1)C(=O)c1ccc2nc(N)c3c(c2c1)CO[C@@H]3C` [Example 726, (3R)-4-amino-N-((6-(difluoromethoxy)-3-pyridazinyl)methyl)-N-ethyl-3-methyl-1,3-dihydrofuro[3,4-c]quinoline-8-carboxamide], the IC50 in the test on HCT116 MTAP null cells turned out to be 109 nM; with HCT116 WT cells, 7520 nM.
As to `COC[C@@H](C)N(Cc1ccc(C(F)(F)F)cn1)C(=O)c1cc2c3c(c(N)nc2cn1)COC3` [Example 728, 4-amino-N-((2R)-1-methoxy-2-propanyl)-N-((5-(trifluoromethyl)-2-pyridinyl)methyl)-1,3-dihydrofuro[3,4-c][1,7]naphthyridine-8-carboxamide], the IC50 with HCT116 MTAP null cells amounted to 47 nM; in the test with HCT116 WT cells, 663 nM.
In the same order, the values of `Nc1nc2cc(F)c(C(=O)N(Cc3ccc(C(F)(F)F)cn3)c3cnn(C(F)(F)F)c3)cc2c2c1COC2` [Example 729, 4-amino-7-fluoro-N-(1-(trifluoromethyl)-1H-pyrazol-4-yl)-N-((5-(trifluoromethyl)-2-pyridinyl)methyl)-1,3-dihydrofuro[3,4-c]quinoline-8-carboxamide] are 19 nM and 534 nM.
Take `Nc1nc2cc(F)c(C(=O)N(Cc3ccc(C(F)(F)F)nn3)CC3CC3)cc2c2c1COC2` [Example 730, 4-amino-N-(cyclopropylmethyl)-7-fluoro-N-((6-(trifluoromethyl)-3-pyridazinyl)methyl)-1,3-dihydrofuro[3,4-c]quinoline-8-carboxamide]: the results for the IC50 in the test with HCT116 MTAP null cells and with HCT116 WT cells were 17 nM and 620 nM, respectively.
Consider `Cn1ncc2c3cc(C(=O)N(Cc4ccc(C(F)(F)F)nn4)CC4CC4)c(F)cc3nc(N)c21` [Example 731, 4-amino-N-(cyclopropylmethyl)-7-fluoro-3-methyl-N-((6-(trifluoromethyl)-3-pyridazinyl)methyl)-3H-pyrazolo[3,4-c]quinoline-8-carboxamide], for which the IC50 with HCT116 MTAP null cells came to 47 nM; in the test on HCT116 WT cells, 2090 nM.
For `Nc1nc2cnc(C(=O)N(Cc3ccc(C(F)(F)F)cn3)c3cnn(C(F)(F)F)c3)cc2c2c1COC2` [Example 732, 4-amino-N-(1-(trifluoromethyl)-1H-pyrazol-4-yl)-N-((5-(trifluoromethyl)-2-pyridinyl)methyl)-1,3-dihydrofuro[3,4-c][1,7]naphthyridine-8-carboxamide], in that order: 87 nM and 2850 nM.
In the same order, the values of `CC(C)N(Cc1ccc(C(F)(F)F)cc1)C(=O)c1cc2c3c(c(N)nc2cn1)COC3` [Example 733, 4-amino-N-(2-propanyl)-N-(4-(trifluoromethyl)benzyl)-1,3-dihydrofuro[3,4-c][1,7]naphthyridine-8-carboxamide] are 290 nM and 6300 nM.
For `Nc1nc2cnc(C(=O)N(Cc3ccc(C(F)(F)F)cc3)C3CC3)cc2c2c1COC2` [Example 734, 4-amino-N-cyclopropyl-N-(4-(trifluoromethyl)benzyl)-1,3-dihydrofuro[3,4-c][1,7]naphthyridine-8-carboxamide], in that order: 383 nM and 14400 nM.
With `C[C@@H](c1ccc(C(F)(F)F)cn1)N(C(=O)c1ccc2nc(N)c3c(c2c1)COC3)C1CC1` [Example 735, 4-amino-N-cyclopropyl-N-((1S)-1-(5-(trifluoromethyl)-2-pyridinyl)ethyl)-1,3-dihydrofuro[3,4-c]quinoline-8-carboxamide], the half-inhibitory concentration (IC50) in the test with HCT116 MTAP null cells came to 5500 nM; in the test on HCT116 WT cells, 36200 nM.
For `C[C@H](c1ccc(C(F)(F)F)cn1)N(C(=O)c1ccc2nc(N)c3c(c2c1)COC3)C1CC1` [Example 736, 4-amino-N-cyclopropyl-N-((1R)-1-(5-(trifluoromethyl)-2-pyridinyl)ethyl)-1,3-dihydrofuro[3,4-c]quinoline-8-carboxamide], in that order: 127 nM and 4890 nM.
Take `CCN(C(=O)c1cc2c3c(c(N)nc2cc1Cl)COC3)[C@H](C)c1ccc(C(F)(F)F)cn1` [Example 738, 4-amino-7-chloro-N-ethyl-N-((1R)-1-(5-(trifluoromethyl)-2-pyridinyl)ethyl)-1,3-dihydrofuro[3,4-c]quinoline-8-carboxamide]: the results for the half-maximal inhibitory concentration (IC50) in the test with HCT116 MTAP null cells and in the test with HCT116 WT cells were 13 nM and 430 nM, respectively.
With `Cn1cc(N(Cc2ccc(C(F)(F)F)cn2)C(=O)c2cc3c(cc2F)nc(N)c2cnn(C)c23)cn1` [Example 740, 4-amino-7-fluoro-1-methyl-N-(1-methyl-1H-pyrazol-4-yl)-N-((5-(trifluoromethyl)-2-pyridinyl)methyl)-1H-pyrazolo[4,3-c]quinoline-8-carboxamide], the IC50 in the test on HCT116 MTAP null cells was 5 nM; in the test on HCT116 WT cells, 100 nM.
For `Nc1nc2cc(Cl)c(C(=O)N(Cc3ccc(C(F)(F)F)nn3)CC3CC3)cc2c2c1COC2` [Example 741, 4-amino-7-chloro-N-(cyclopropylmethyl)-N-((6-(trifluoromethyl)-3-pyridazinyl)methyl)-1,3-dihydrofuro[3,4-c]quinoline-8-carboxamide], in that order: 42 nM and 1020 nM.
In the same order, the values of `CCN(C(=O)c1ccc2nc(N)c3c(c2c1)COC3)[C@H](C)c1ccc(C(F)(F)F)cc1F` [Example 742, 4-amino-N-ethyl-N-((1R)-1-(2-fluoro-4-(trifluoromethyl)phenyl)ethyl)-1,3-dihydrofuro[3,4-c]quinoline-8-carboxamide] are 66 nM and 2500 nM.
`CCN(C(=O)c1ccc2nc(N)c3c(c2c1)COC3)[C@H](C)c1ccc(C(F)(F)F)cc1` [Example 743, 4-amino-N-ethyl-N-((1R)-1-(4-(trifluoromethyl)phenyl)ethyl)-1,3-dihydrofuro[3,4-c]quinoline-8-carboxamide]: the IC50 came to 15 nM in the test with HCT116 MTAP null cells and 1090 nM in the test on HCT116 WT cells.
For `C[C@H](c1ccc(C(F)(F)F)nn1)N(C(=O)c1cc2c3c(c(N)nc2cc1Cl)COC3)C1CCC1` [Example 744, 4-amino-7-chloro-N-cyclobutyl-N-((1R)-1-(6-(trifluoromethyl)-3-pyridazinyl)ethyl)-1,3-dihydrofuro[3,4-c]quinoline-8-carboxamide], in that order: 38 nM and 967 nM.
As to `C[C@H](c1ccc(C(F)(F)F)nn1)N(C(=O)c1ccc2nc(N)c3c(c2c1)COC3)C1CCC1` [Example 745, 4-amino-N-cyclobutyl-N-((1R)-1-(6-(trifluoromethyl)-3-pyridazinyl)ethyl)-1,3-dihydrofuro[3,4-c]quinoline-8-carboxamide], the IC50 with HCT116 MTAP null cells was 246 nM; in the test on HCT116 WT cells it was 14800 nM.
